Target: T1, human GPR39 receptor (Homo sapiens, UniProt O43194)
T1 construct: PC3 Cells, Expressing the Endogenous Human GPR39 Receptor; endogenous in cells; host or cells: PC3 (human prostate adenocarcinoma) cells
T1 sequence (O43194 1-453): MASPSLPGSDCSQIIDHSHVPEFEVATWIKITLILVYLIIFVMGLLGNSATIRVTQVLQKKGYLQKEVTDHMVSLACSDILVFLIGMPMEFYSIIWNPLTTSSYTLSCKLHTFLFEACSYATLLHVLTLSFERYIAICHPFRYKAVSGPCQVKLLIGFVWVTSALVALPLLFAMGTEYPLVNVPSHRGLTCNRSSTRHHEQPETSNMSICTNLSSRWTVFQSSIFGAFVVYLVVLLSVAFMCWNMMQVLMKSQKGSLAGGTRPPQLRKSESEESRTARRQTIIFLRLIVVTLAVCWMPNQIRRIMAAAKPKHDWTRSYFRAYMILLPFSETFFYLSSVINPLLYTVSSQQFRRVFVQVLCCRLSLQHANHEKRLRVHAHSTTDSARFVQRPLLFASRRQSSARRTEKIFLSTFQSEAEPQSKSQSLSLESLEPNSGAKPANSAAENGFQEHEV
Test: Intracellular calcium response (FLIPR, Calcium-6) in PC3 cells, antagonism of agonist C3 (TC-G 1008) at EC90
Format: cell-based
Conditions: functional pKi (-Log10Ki) by modified Cheng-Prusoff from IC50; PC3 cells endogenously expressing human GPR39; 30 μM ZnCl2; agonist C3 (TC-G 1008) at EC90 1.5 μM; read-out: fpKi activity
Procedure, shortened: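 Calcium-6-loaded cells in HEPES buffer pH 7.4 were given compound with 30 μM final ZnCl2 (0.32% DMSO) for 10 min, then challenged with 1.5 μM C3. Baseline-subtracted peak fluorescence expressed as % inhibition of the C3 response; IC50 from four-parameter logistic fit, reported as binned fpKi.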

SMILES	Ki [nM]
CN1CCN(C(=O)c2cc3[nH]c(C4CC4)nc3cc2N2CCCC2)C(c2ccccc2)C1 (stereo not drawn) [Example 113, (2-cyclopropyl-6-pyrrolidin-1-yl-3H-benzimidazol-5-yl)-(4-methyl-2-phenylpiperazin-1-yl)methanone]	> 6310
Cc1nc2cc(N3CCCC3)c(C(=O)N3CCN(C)CC3c3ccccc3)cc2[nH]1 (stereo not drawn) [Example 114, (4-methyl-2-phenylpiperazin-1-yl)-(2-methyl-6-pyrrolidin-1-yl-3H-benzimidazol-5-yl)methanone]	> 6310
N#Cc1ccn(-c2cc(NC(=O)C3CC3)ccc2C(=O)N2CCS(=O)(=O)CC2)n1 [Example 117, N-[3-(3-cyanopyrazol-1-yl)-4-(1,1-dioxo-1,4-thiazinane-4-carbonyl)phenyl]cyclopropanecarboxamide]	1260 to 6310
O=C(Nc1ccc(C(=O)N2CCS(=O)(=O)CC2)c(N2CCCC2=O)c1)C1CC1 [Example 123, N-[4-(1,1-dioxo-1,4-thiazinane-4-carbonyl)-3-(2-oxopyrrolidin-1-yl)phenyl]cyclopropanecarboxamide]	> 6310
CN1CCN(C(=O)c2ccc(NC(=O)C3CC3)cc2N2CCCC2=O)C(c2ccccc2)C1 (stereo not drawn) [Example 124, N-[4-(4-methyl-2-phenylpiperazine-1-carbonyl)-3-(2-oxopyrrolidin-1-yl)phenyl]cyclopropanecarboxamide]	> 6310

More lines, now with the values ahead:

Ki [nM]	SMILES
1260 to 6310	CN1CCN(C(=O)c2cc(F)c(NC(=O)C3CC3)nc2N2CCCC2)C(c2ccccc2)C1 (stereo not drawn) [Example 115, N-[3-fluoro-5-(4-methyl-2-phenylpiperazine-1-carbonyl)-6-pyrrolidin-1-ylpyridin-2-yl]cyclopropanecarboxamide]
63.1 to 251	O=C(Nc1ccc(C(=O)N2CCS(=O)(=O)CC2)c(-n2ccc(C(F)F)n2)c1)C1CC1 [Example 116, N-[3-[3-(difluoromethyl)pyrazol-1-yl]-4-(1,1-dioxo-1,4-thiazinane-4-carbonyl)phenyl]cyclopropanecarboxamide]
≤ 50.1	CC(C)(C)c1ccn(-c2cc(NC(=O)C3CC3)ccc2C(=O)N2CCS(=O)(=O)CC2)n1 [Example 118, N-[3-(3-tert-butylpyrazol-1-yl)-4-(1,1-dioxo-1,4-thiazinane-4-carbonyl)phenyl]cyclopropanecarboxamide]
≤ 50.1	O=C(Nc1ccc(C(=O)N2CCC(F)(F)CC2)c(-n2ccc(C(F)(F)F)n2)c1)C1CC1 [Example 119, N-[4-(4,4-difluoropiperidine-1-carbonyl)-3-[3-(trifluoromethyl)pyrazol-1-yl]phenyl]cyclopropanecarboxamide]
316 to 1000	Cc1nnc(-c2ccc(C(=O)N3CCC(C#N)CC3)c(-c3ccn(C(C)C)n3)c2)[nH]1 [Example 120, 1-[2-(1-isopropylpyrazol-3-yl)-4-(5-methyl-4H-1,2,4-triazol-3-yl)benzoyl]piperidine-4-carbonitrile]
≤ 50.1	Cc1nnc(-c2ccc(C(=O)N3CCC(C(F)(F)F)CC3)c(-n3ccc(C4CC4)n3)c2)[nH]1 [Example 121, [2-(3-cyclopropylpyrazol-1-yl)-4-(5-methyl-4H-1,2,4-triazol-3-yl)phenyl]-[4-(trifluoromethyl)piperidin-1-yl]methanone]
≤ 50.1	Cc1nnc(-c2ccc(C(=O)N3CCC(F)(F)CC3)c(-n3ccc(C(C)(C)C)n3)c2)[nH]1 [Example 122, [2-(3-tert-butylpyrazol-1-yl)-4-(5-methyl-4H-1,2,4-triazol-3-yl)phenyl]-(4,4-difluoropiperidin-1-yl)methanone]

From patent publication US20250333405A1, “ANTAGONISTS OF GPR39 PROTEIN” (VASOCARDEA, INC., priority 2024, published 2025)
